Assay results reported in patent US20130035361A1, “USE OF ERGOTHIONEINE AS A PRESERVATIVE IN FOODS AND BEVERAGES” (priority 2007, published 2013).
≈ marks a conversion by molar mass, not a printed value.

Experiments:
[1] = ERGO concentration found in Pinot noir wines after 18 months of bottle storage; format: physicochemical; conditions: for ERGO Found: Pinot noir wine, after 18 months bottle storage
From the text: According to the invention, sulfur dioxide was replaced in whole or in part with L-ergothioneine in Pinot noir wines at bottling.

[2] = Stability over time in food and beverages; format: physicochemical; conditions: stored over a period of several years
[3] = cited from earlier work
[4] = per one unit of L-Ergothioneine; cited from earlier work
[5] = test system: LPO formation in mouse liver; conditions: cited from earlier work
liver tissue of rats = conditions: exogenous L-ergothioneine; cited from earlier work

Row | Compound | ERGO Found ([1]; SO2 added 0 mg/L, ERGO added 10 mg/L at bottling) [mg/L] | ERGO Found ([1]; SO2 added 0 mg/L, ERGO added 30 mg/L at bottling) [mg/L] | ERGO Found ([1]; SO2 added 0 mg/L, ERGO added 50 mg/L at bottling) [mg/L] | ERGO Found ([1]; SO2 added 0 mg/L, ERGO added 70 mg/L at bottling) [mg/L] | presence of ergothioneine in the wine after storage ([1]; Pinot noir wines, SO2 replaced in whole or in part at bottling, after 18 months of storage) | stability over time [2] | water solubility [3] | solubility limit ([3]; room temperature) [mM] | units of Vitamin E equivalent to one unit [4] | LPO formation [5] | decomposition of existing LPO [5] | lipid peroxidation by toxic compounds (liver tissue of rats) | ERGO Found ([1]; SO2 added 30 mg/L, ERGO added 0 mg/L at bottling) [mg/L] | ERGO Found ([1]; SO2 added 70 mg/L, ERGO added 0 mg/L at bottling) [mg/L]
1 | C[N+](C)(C)[C@@H](Cc1c[nH]c(=S)[nH]1)C(=O)[O-] [L-ergothioneine] | 8.8 | 29.8 | 55.4 | 81.2 | still present in the wine | very stable over time | readily water soluble | 900 (≈ 206 mg/mL) | ~7000 units of Vitamin E | inhibited LPO formation | enhanced the decomposition of existing LPO | prevent lipid peroxidation |  | 
2 | O=S=O [SO2, sulfur dioxide, reference compound] |  |  |  |  |  |  |  |  |  |  |  |  | 7.3 | 7.5
